A value given as a limit tells only on which side of the number the result lay.

Data set [1] concerns the target T1, HIV-1 RT-associated RNase H (Human immunodeficiency virus type 1 group M subtype B, UniProt P03366).
T1 construct: His-tagged p66/p51 HIV-1 RT group M subtype B; His tag; made in house; host or cells: Escherichia coli strain M15 (plasmid p6HRT-prot)
The experiment in a line: RNase H polymerase-independent cleavage assay. In kind it is biochemical. The note with it: for IC50: IC50, compound concentration required to reduce HIV-1 RT-associated RNase H activity by 50%, recombinant HIV-1 wt RT, hybrid RNA/DNA substrate, 37 °C, 1 hour; for remaining activity at 100 µM: read-out: Percentage of the control activity measured at the indicated compound concentration. As to the method:
The Ar^1 and Ar^2 aromatic segments of the molecule also approach the protein surface, through hydrophobic interactions. These findings provide important information for further structural optimization. All these newly designed thiazolone[3,2-a]pyrimidine derivatives were evaluated for their inhibitory activity against HIV RT-associated RNase H, using the diketo acid RDS1643 as positive control. […] The decrease in activity observed in compounds containing a sulfonic acid group might be attributed to the excessively strong acidity of the sulfonic acid group, which could protonate the diazo group within the molecule. […] When Ar^2 was changed from a phenyl group to a naphthyl group, the activity of compound 10f gained a great improvement over that of compound 10k. […] And when a negatively charged polar group was present at the 2-position of Ar^2, the inhibitory activity is enhanced. […]
3. Biology Experimental section
3.1 Expression and purification of recombinant HIV-1 RTs.
His-tagged p66/p51 HIV-1 RT group M subtype B coded in a p6HRT-prot plasmid was expressed in the Escherichia coli strain M15.1 Heterodimeric RTs were expressed essentially and purified as described.2 E. coli cells harboring the expression vector were cultured until reaching an optical density at 600 nm of 0.7. Induction of protein expression was achieved by treating the cells with 1.7 mM isopropyl β-D-1-thiogalactopyranoside (IPTG) for a duration of 4 hours. The subsequent purification of the protein was performed using a BioLogic LP system (BioRad) employing a combination of immobilized metal affinity chromatography and ion exchange […]
To initiate the purification process, the cell pellets were resuspended in lysis buffer at a ratio of 1:2 (cell pellet volume: lysis buffer volume). The lysis buffer used consisted of 50 mM sodium phosphate buffer with a pH of 7.8, supplemented with 0.5 mg/ml lysozyme. The resuspended cells were incubated on ice for 20 minutes. Following this, NaCl was added to achieve a final concentration of 0.3 M. The cells were then subjected to sonication, with four cycles of 60 seconds each, alternating between one second on and one second off. Subsequently, the cell lysate was centrifuged at 30, 000×g for 1 […]
The supernatant obtained from the centrifugation step was loaded onto a Ni2+-NTA-Sepharose column that had been pre-equilibrated with a loading buffer consisting of 50 mM sodium phosphate buffer (pH 7.8), 0.3 M NaCl, 10% glycerol, and 10 mM imidazole. The column was washed with a buffer containing 50 mM sodium phosphate buffer (pH 6.0), 0.3 M NaCl, 10% glycerol, and 80 mM imidazole. The target protein, RT, was eluted using an imidazole gradient ranging from 0.08 M to 0.5 M in the wash buffer. Fractions containing the enzyme were collected and combined, and then diluted 1:1 with 50 mM sodium phosphate buffer (pH 7.0) containing 10% glycerol. The diluted protein sample was loaded onto a Hi-trap heparin HP column that had been pre-equilibrated with 10 column volumes of a loading buffer consisting of 50 mM sodium phosphate buffer (pH 7.0), 10% glycerol, and 150 mM NaCl. The column was washed with the loading buffer, and the RT enzyme was eluted using Elute Buffer 2, which
(1 picture or pasted object on this page, not shown here) […]
comprised 50 mM sodium phosphate buffer (pH 7.0), 10% glycerol, and 1 M NaCl.
The eluted fractions containing the purified protein were collected, and the protein was subsequently dialyzed and stored in a buffer composed of 50 mM Tris-HCl (pH 7.0), 25 mM NaCl, 1 mM EDTA, and 50% glycerol. The catalytic activities of the purified protein samples were determined, and aliquots were stored at -80 °C for further use.
3.2 RNase H Polymerase-Independent Cleavage Assay
The HIV-1 RT-associated RNase H activity was measured as described.3 In summary, the reaction was performed in a black 96-well plate with a total volume of 100 μL. The reaction mix consisted of 50 mM Tris HCl (pH 7.8), 6 mM MgCl2, 1 mM dithiothreitol […]

The term IC50 denotes the point on the concentration scale where inhibition reaches its midpoint. In general, melting point refers to the temperature, or range, at which the solid turns liquid. `COC(=O)C1=C(C)N=C2S/C(=N\Nc3ccccc3S(=O)(=O)O)C(=O)N2C1c1ccccc1` (stereo not shown) [Compound 10k, (2-(6-(Methoxycarbonyl)-7-methyl-3-oxo-5-phenyl-5H-thiazolo[3,2-a]pyrimidin-2(3H)-ylidene)hydrazineyl)benzenesulfonic acid]: the melting point was 262 to 266 °C. Moreover, in data set [1], the IC50 was more than 100 µM and the remaining activity at 100 µM came to 85%.

The compound `COC(=O)C1=C(C)N=C2SC(=NNc3cccc(C(C)=O)c3)C(=O)N2C1c1ccc(OC)c(OC)c1OC` (stereo not shown) [Compound 11k, Methyl 2-(2-(3-acetylphenyl)hydrazineylidene)-7-methyl-3-oxo-5-(2,3,4-trimethoxyphenyl)-2,3-dihydro-5H-thiazolo[3,2-a]pyrimidine-6-carboxylate] came in with a melting point of 216 to 219 °C. In addition, the IC50 in data set [1] worked out at 22 ± 0.36 µM.

`COC(=O)C1=C(C)N=C2SC(=NNc3ccccc3)C(=O)N2C1c1ccc(OC)c(OC)c1OC` (stereo not shown) [Compound 11b, Methyl 7-methyl-3-oxo-2-(2-phenylhydrazineylidene)-5-(2,3,4-trimethoxyphenyl)-2,3-dihydro-5H-thiazolo [3,2-a]pyrimidine-6-carboxylate] returned a melting point of 189 to 192 °C. Also, the IC50 in data set [1] was determined as 48.9 ± 4.73 µM.

In the case of `COC(=O)C1=C(C)N=C2SC(=NNc3ccccc3C(C)=O)C(=O)N2C1c1ccc(OC)cc1` (stereo not shown) [Compound 12a, Methyl 2-(2-(2-acetylphenyl)hydrazineylidene)-5-(4-methoxyphenyl)-7-methyl-3-oxo-2,3-dihydro-5H-thiazolo[3,2-a]pyrimidine-6-carboxylate], the melting point was 199 to 201 °C. Further, the IC50 in data set [1] turned out to be 3.98 ± 0.3 µM.

In turn, `COC(=O)C1=C(C)N=C2SC(=NNc3cccc(C(=O)OC)c3)C(=O)N2C1c1ccc(OC)cc1` (stereo not shown) [Compound 12c, Methyl 2-(2-(3-(methoxycarbonyl)phenyl)hydrazineylidene)-5-(4-methoxyphenyl)-7-methyl-3-oxo-2,3-dihydro-5H-thiazolo[3,2-a]pyrimidine-6-carboxylate] yielded a melting point of 209 to 211 °C. Further, the IC50 in data set [1] came to 4.71 ± 0.86 µM.

`COC(=O)C1=C(C)N=C2SC(=NNc3ccccc3C(=O)OC)C(=O)N2C1c1ccc(OC)cc1` (stereo not shown) [Compound 12b, Methyl 2-(2-(2-(methoxycarbonyl)phenyl)hydrazineylidene)-5-(4-methoxyphenyl)-7-methyl-3-oxo-2,3-dihydro-5H-thiazolo[3,2-a]pyrimidine-6-carboxylate] gave a melting point of 219 to 221 °C. In data set [1], the IC50 was found to be 2.97 ± 0.88 µM.

In turn, `COC(=O)C1=C(C)N=C2SC(=NNc3cc(OC)c(OC)c(OC)c3)C(=O)N2C1c1ccc(OC)cc1` (stereo not shown) [Compound 12e, Methyl 5-(4-methoxyphenyl)-7-methyl-3-oxo-2-(2-(3,4,5-trimethoxyphenyl)hydrazineylidene)-2,3-dihydro-5H-thiazolo[3,2-a]pyrimidine-6-carboxylate] registered a melting point of 204 to 206 °C. In addition, the IC50 in data set [1] turned out to be 8.99 ± 0.27 µM.

Turning to `COC(=O)C1=C(C)N=C2SC(=NNc3ccccc3C(C)=O)C(=O)N2C1c1ccc(OC)c(OC)c1OC` (stereo not shown) [Compound 11i, Methyl 2-(2-(2-acetylphenyl)hydrazineylidene)-7-methyl-3-oxo-5-(2,3,4-trimethoxyphenyl)-2,3-dihydro-5H-thiazolo[3,2-a]pyrimidine-6-carboxylate], the melting point lay within 205 to 208 °C. Moreover, in data set [1], the half-inhibitory concentration (IC50) was more than 100 µM and the remaining activity at 100 µM was determined as 100%.

For `COC(=O)C1=C(C)N=C2S/C(=N\Nc3ccc4ccccc4c3S(=O)(=O)O)C(=O)N2C1c1ccccc1` (stereo not shown) [Compound 10f], the melting point lay in the range of 289 to 293 °C. The IC50 in data set [1] turned out to be 7.04 ± 0.57 µM.

For the compound `COC(=O)C1=C(C)N=C2SC(=NNc3ccccc3OC)C(=O)N2C1c1ccc(OC)c(OC)c1OC` (stereo not shown) [Compound 11a, Methyl 2-(2-(2-methoxyphenyl)hydrazineylidene)-7-methyl-3-oxo-5-(2,3,4-trimethoxyphenyl)-2,3-dihydro-5H-thiazolo[3,2-a]pyrimidine-6-carboxylate], the melting point is 178 to 180 °C. In data set [1], the IC50 was determined as 11.8 ± 0.91 µM.

Source of the values: paper PMC11085872, “Structure-Based Design of Novel Thiazolone[3,2-a]pyrimidine Derivatives as Potent RNase H Inhibitors for HIV Therapy” (Molecules, 2024).
